Laboratory results reported in BindingDB's records for patent US20250026766 (Beigene, 2025).

Target: T1, DNA polymerase theta [1-894] (UniProt O75417)
T1 construct: 1-894
Experiment: Biochemical Pol Theta (1-894) ATPase IC50 Assay
Method: The inhibition activities testing for the compound disclosed herein were carried out at room temperature in assay buffer containing 40 mM Tris pH 7.5, 20 mM MgCl2, 1 mM DTT, 0.01% BSA and 0.05% Tween-20. […] After 1 hour reaction, 5 μL ADP-Glo reagent (Promga V9102) was added and incubated for 40 minutes. 10 μL Kinase Detection reagent was added and incubated for 40 minutes. Luminescence was measured on a microplate reader (PHERAstar FSX, BMG labtech). The IC50 values were calculated based on inhibition of enzyme activity in the presence of increasing concentrations of compounds.

T1 sequence (O75417 1-894): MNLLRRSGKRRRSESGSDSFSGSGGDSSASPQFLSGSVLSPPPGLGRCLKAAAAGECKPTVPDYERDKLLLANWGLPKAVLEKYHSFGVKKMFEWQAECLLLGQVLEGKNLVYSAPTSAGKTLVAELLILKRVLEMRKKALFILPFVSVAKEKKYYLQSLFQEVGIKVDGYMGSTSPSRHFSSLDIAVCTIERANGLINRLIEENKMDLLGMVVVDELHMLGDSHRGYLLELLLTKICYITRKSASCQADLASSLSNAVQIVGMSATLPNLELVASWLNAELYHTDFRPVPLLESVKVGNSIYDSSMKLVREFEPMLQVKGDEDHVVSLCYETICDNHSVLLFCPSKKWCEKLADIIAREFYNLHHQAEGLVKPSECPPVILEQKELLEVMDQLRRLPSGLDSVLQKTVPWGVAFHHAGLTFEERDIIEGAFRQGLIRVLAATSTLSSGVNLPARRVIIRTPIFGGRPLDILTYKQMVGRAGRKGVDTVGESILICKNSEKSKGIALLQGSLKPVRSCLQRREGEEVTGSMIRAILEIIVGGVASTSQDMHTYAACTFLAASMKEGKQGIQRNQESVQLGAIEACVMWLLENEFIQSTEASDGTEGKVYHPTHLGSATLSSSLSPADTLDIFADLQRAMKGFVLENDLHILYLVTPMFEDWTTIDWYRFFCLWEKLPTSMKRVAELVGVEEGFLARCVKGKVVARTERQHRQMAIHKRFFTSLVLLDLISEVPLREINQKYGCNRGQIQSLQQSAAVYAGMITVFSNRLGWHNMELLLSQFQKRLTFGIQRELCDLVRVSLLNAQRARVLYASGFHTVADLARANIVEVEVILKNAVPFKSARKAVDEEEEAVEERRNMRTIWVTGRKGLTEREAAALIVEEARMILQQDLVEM

Row | SMILES | IC50 [nM]
1 | Cc1ccc(-c2ccc3nc(NC(=O)c4ccc(C#N)nc4N4CCOCC4)sc3n2)cc1 [US20250026766, Example 4] | 1560
2 | COc1ccccc1-c1cnncc1C(=O)Nc1nc2ccc(-c3ccc(Cl)cc3OC(C)C)nc2s1 [US20250026766, Example 143] | 22
